According to BindingDB's records for doi:10.1016/j.bmc.2010.05.071 (University of Innsbruck and Center For Molecular …, 2010):
pIC50: −log10 of the molar value.

Target: Acetylcholinesterase (Electrophorus electricus, UniProt O42275)
Assay: Inhibition of electric eel AChE by Ellman's method

Sequence of Acetylcholinesterase (O42275 whole entry): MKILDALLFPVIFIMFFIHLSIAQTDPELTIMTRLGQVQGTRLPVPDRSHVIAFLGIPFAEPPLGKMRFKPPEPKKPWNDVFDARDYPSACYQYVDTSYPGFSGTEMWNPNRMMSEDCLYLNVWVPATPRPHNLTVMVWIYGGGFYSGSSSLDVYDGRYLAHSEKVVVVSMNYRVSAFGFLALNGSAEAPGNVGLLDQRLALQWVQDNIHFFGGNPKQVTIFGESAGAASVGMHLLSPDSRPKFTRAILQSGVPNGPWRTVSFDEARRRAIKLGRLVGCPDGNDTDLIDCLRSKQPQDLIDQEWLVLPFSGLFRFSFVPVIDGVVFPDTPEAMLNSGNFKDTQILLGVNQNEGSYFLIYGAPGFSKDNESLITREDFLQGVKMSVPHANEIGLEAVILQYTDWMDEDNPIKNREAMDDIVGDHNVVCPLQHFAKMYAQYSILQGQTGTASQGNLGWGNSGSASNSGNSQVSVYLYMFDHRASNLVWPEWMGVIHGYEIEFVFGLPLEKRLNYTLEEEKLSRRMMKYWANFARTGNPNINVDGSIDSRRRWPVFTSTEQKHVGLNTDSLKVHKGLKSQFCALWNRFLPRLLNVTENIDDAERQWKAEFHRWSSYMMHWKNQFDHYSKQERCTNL

**Q.** How did the pIC50 turn out when O=CN1CC[C@]23CC(=O)CC[C@H]2[C@H]1Cc1c(O)ccc(O)c13 was run?
**A.** Its pIC50 is 4.90.
